Where a name gives a salt, the structure may show the parent alone.
Tests used:
[1] = tested on: γδ T lymphocyte line; experiment: ELISA test for the production of TNFα in the γδ T lymphocyte line; assay type: cell-based, human; conditions: for EC50: Homo sapiens, T-lymphocyte, 24 h
Procedure: A buffy coat from a healthy donor with a high basal percentage of γδ T lymphocytes (approximately 6%) was selected for growth of the γδ T lymphocyte lines.
The PBMCs were separated out and cultured at a concentration of 1 x 10^6 cells/ml in the presence of IPP (160 ng/ml) and IL-2 (100 U/ml).
After 7 days incubation at 37°C with 5% CO2, 3 ml of medium were sampled and replaced with the same amount of fresh medium ennched with IL-2 (final concentration 100 U/ml).
After a further 7 days in the incubator an aliquot of the cultured cells was taken to label the membrane and measure the percentage of γδ T cells obtained from the expansion.
This cell line was then used to evaluate the production of TNFα following stimulation of the cells with the compounds under investigation, using an ELISA test.
In the ELISA test there were used cells from the line produced as disclosed above in a concentration of 2.5 x 10^5 cells/ml (5 x 10^4 cells/well).
The cells were then stimulated with the compounds under investigation and with isopentenyl pyrophosphate (IPP) as a reference at scalar doses.
After 24 hours the supernatants from the wells containing the stimulated cells were sampled and the ELISA test was carried out using the "Human TNFα Screening Set" kit (Endogen). The kit provides for treatment with an anti-TNFα biotinylate polyclonal antibody, the addition of peroxidase conjugated with streptavidine and quantitative determination using a chromogenic substrate. The plates were read spectrophotometrically at 450 nm.
Each compound was tested in duplicate.

[2] = tested on: γδ T lymphocytes of peripheral blood mononucleate cells (PBMCs); experiment: Cytokine production assay on peripheral blood mononucleate cells (PBMCs), cytofluorimetry; assay type: cell-based, human; conditions: for activation at 10 µM / activation at 100 µM / activation at 1000 µM: Homo sapiens, PBMC, read-out: % increase in γδ T lymphocytes producing TNFα; for % increase in γδ T lymphocytes producing INFγ: IPP (10 µM) std = 100
Procedure: γδ T lymphocyte activation was tested by an assay involving the production of cytokines such as TNFα and IFNγ by the γδ T lymphocytes of peripheral blood mononucleate cells (PBMCs) from healthy donors (Poccia, F. et al., The Journal of Immunology 1997, 159, 6009-6017).
Mononucleate cells (PBMCs) were isolated from the peripheral blood of healthy donors, cultured at 37°C on a complete medium comprising RPMI 1640, 10% FCS, 1% L-glutamine, 1% penicillin-streptomycin in the presence of interleukin 2 (IL-2), T lymphocyte growth factor, and 5% CO2 in a controlled humidity environment, and then stimulated with isopentenyl pyrophosphate (IPP 10 µM) as a positive activation control and with various doses (10 µM, 100 µM) and 1000 µM) of compounds according to the invention, respectively.
Then it was performed a cytofluorimetric labelling using specific monoclonal antibodies (membrane labelling for the expansion and intra-cytoplasm labelling for the cytokines) and a cytofluorimetric measurement in order to establish the percentage of γδ T cells producing TNFα and IFNγ (cytokine production assay).

[3] = tested on: alkaline phosphatase; experiment: Stability test in alkaline aqueous solution in the presence of alkaline phosphatase (enzyme hydrolysis), HPLC-MS; conditions: for resistance to hydrolysis: in words, summary of Table 1; for Percentage of non-hydrolysed compound: 2 mM, pH 8 TRIS-HCl buffer, alkaline phosphatase, ambient temperature
Procedure: The following compounds were selected for the stability tests in alkaline aqueous solution in the presence of alkaline phosphatase (SIGMA Phosphatase, alkaline-Agarose from calf intestine-P0762): [drawing 25] • Solution A: • pH 8 solution: TRIS-HCl buffer and 2 mM of MgCl2; • Solution B: • comparison versus solution A: 2 mM isopentenyl pyrophosphate (IPP) solution; • Solution C: • 2 mM isopentenyl thiopyrophosphate solution (Compound 8) of this invention into Solution A, • Solution D: • Solution of phosphatase enzyme immobilised on a solid substrate (agarose), 50 biological units into 10 ml of Solution A.
20 µl of Solution D were added to 0.5 ml of Solution B. The system was allowed to stand at ambient temperature under stirring. The solution was filtered to remove the enzyme and it was then analysed with HPLC-MS at predetermined time intervals (20, 30, 40, 50 and 60 minutes).
The same procedure was carried out with Solution C.

[4] = tested on: Vγ9Vδ2 cells; experiment: Peripheral blood mononucleate cell (PBMC) cellular expansion assay; assay type: cell-based, human; conditions: tenth day of culture
Procedure: The effect of the compounds of this invention on the expansion of γδ T lymphocytes was investigated through an assay carried out on γδ T lymphocytes originating from the peripheral blood mononucleate cells from healthy donors (PBMCs).
The PBMCs were separated by centrifuging (Ficoll) on whole blood from samples (residual samples) from 7 healthy donors.
In control experiments the cells were treated with IPP at the same concentrations and under the same Experimental conditions.
On the tenth day of culture the cells were recovered and counted by means of a living count with Trypan Blue, and labelled with the same anti-Vd2-FITC antibody, and finally tested by cytofluorimetry to evaluate the percentage of Vγ9Vδ2 cells.
The absolute number of Vγ9Vδ2 cells was calculated using the following formula: No. of Vγ9Vδ2 cells = (total absolute no.of cells after expansion x%of Vγ9Vδ2cells after expansion)/100. [formula]

With `O=P(O)(O)OP(=O)(O)SCCCCCl` [Compound 1, S-(4-chlorobutyl) ester of the trisodium salt of thiodiphosphoric acid] the EC50 [1] was 100 µM, the activation at 10 µM [2] was 81% and the activation at 100 µM [2] was 127%. The activation at 1000 µM [2] was 81.5%, the “% increase in γδ T lymphocytes producing INFγ” value ([2]; PBMC/IL-2, 10 µM) was 131% and the “% increase in γδ T lymphocytes producing INFγ” value ([2]; PBMC/IL-2, 100 µM) was 94%. The “% increase in γδ T lymphocytes producing INFγ” value ([2]; PBMC/IL-2, 1000 µM) was 132%.

Molecule `O=P(O)(O)OP(=O)(O)SCCOCCCl` [Compound 2, S-[2-(2-chloroethoxy)ethyl] ester of the trisodium salt of thiodiphosphoric acid] has an EC50 [1] of 0.39 µM, an activation at 10 µM [2] of 60.4% and an activation at 100 µM [2] of 71.8%. The activation at 1000 µM [2] was 765%, the “% increase in γδ T lymphocytes producing INFγ” value ([2]; PBMC/IL-2, 10 µM) was 56.4% and the “% increase in γδ T lymphocytes producing INFγ” value ([2]; PBMC/IL-2, 100 µM) was 67%. The “% increase in γδ T lymphocytes producing INFγ” value ([2]; PBMC/IL-2, 1000 µM) was 97.3%.

With `O=P(O)(O)OP(=O)(O)SCCC1CC1` [Compound 3, S-(2-cyclopropylethyl)ester of the trisodium salt of thiodiphosphoric acid] the EC50 [1] was 13 µM, the activation at 10 µM [2] was 495% and the activation at 100 µM [2] was 123%. It also gave an activation at 1000 µM [2] of 158%.

Molecule `C=CCOCCSP(=O)(O)OP(=O)(O)O` [Compound 4, S-[2-(allyloxy)ethyl]ester of the trisodium salt of thiodiphosphoric acid] has an EC50 [1] of 10 µM, an activation at 10 µM [2] of 70.7% and an activation at 100 µM [2] of 130%. It also gave an activation at 1000 µM [2] of 299%.

`C[C@H](O)CCSP(=O)(O)OP(=O)(O)O` [Compound 6, S-(3-hydroxybutyl)ester of the trisodium salt of biodiphosphoric acid] was tested, and the EC50 [1] was 75 µM, the activation at 10 µM [2] was 40% and the activation at 100 µM [2] was 114%. It also gave an activation at 1000 µM [2] of 310%.

With `C=C(C)CCSP(=O)(O)OP(=O)(O)O` [Compound 8, S-(3-methyl-3-butenyl)ester of the triammonium salt of thiodiphosphoric acid] the resistance to hydrolysis [3] was “very much more resistant to hydrolysis”, the “Percentage of non-hydrolysed compound” value ([3]; t = 0 min) was 100% and the “Percentage of non-hydrolysed compound” value ([3]; t = 20 min) was 90%. For the same molecule, the “Percentage of non-hydrolysed compound” value ([3]; t = 30 min) was 90%, the “Percentage of non-hydrolysed compound” value ([3]; t = 40 min) was 90% and the “Percentage of non-hydrolysed compound” value ([3]; t = 50 min) was 90%. The “Percentage of non-hydrolysed compound” value ([3]; t = 60 min) was 90%, the EC50 [1] was 3.75 µM and the activation at 10 µM [2] was 39%. The activation at 100 µM [2] was 92.6%, the activation at 1000 µM [2] was 174% and the “% increase in γδ T lymphocytes producing INFγ” value ([2]; PBMC/IL-2, 10 µM) was 21%. The “% increase in γδ T lymphocytes producing INFγ” value ([2]; PBMC/IL-2, 100 µM) was 865% and the “% increase in γδ T lymphocytes producing INFγ” value ([2]; PBMC/IL-2, 1000 µM) was 182%.

`C/C(=C\CSP(=O)(O)OP(=O)(O)O)CO` [Compound 9, S-[(E)-4-hydroxy-3-methyl-2-butenyl]ester of the trisodium salt of thiodiphosphoric acid] was tested, and the “Expansion Index” value ([4]; Donor A) was 129.28, the “Expansion Index” value ([4]; Donor B) was 80.96 and the “Expansion Index” value ([4]; Donor C) was 5.30. The “Expansion Index” value ([4]; Donor D) was 59.10, the “Expansion Index” value ([4]; Donor E) was 624.02 and the “Expansion Index” value ([4]; Donor F) was 35.37. For the same molecule, the “Expansion Index” value ([4]; Donor G) was 42.09, the EC50 [1] was 0.0048 µM and the “EC50 relative to the EC50 for IPP” value ([1]; production of TNFα, γδ T lymphocyte line) was 1000 times. It also gave an activation at 10 µM [2] of 82.3%, an activation at 100 µM [2] of 175% and an activation at 1000 µM [2] of 464%. For the same molecule, the “activity (γδ T cells producing cytokines)” value ([2]; in words, at 100 and 1000 µM) was “a very clear increase”.

`C=C(C)CCO[P@@](=O)(O)OP(=O)(O)O` [IPP, isopentenyl pyrophosphate, reference compound] was tested, and the resistance to hydrolysis [3] was “degrades rapidly”, the “Percentage of non-hydrolysed compound” value ([3]; t = 0 min) was 94% and the “Percentage of non-hydrolysed compound” value ([3]; t = 20 min) was 48%. The “Percentage of non-hydrolysed compound” value ([3]; t = 30 min) was 54%, the “Percentage of non-hydrolysed compound” value ([3]; t = 60 min) was 27% and the activation at 10 µM [2] was 100%. For the same molecule, the “% increase in γδ T lymphocytes producing INFγ” value ([2]; PBMC/IL-2, 10 µM) was 100%.

— EP1991554B1, “THIOPYR[…] COMPOUNDS, METHOD FOR PREPARING THEREOF AND COMPOSITIONS CONTAINING THEM” (C4T S.C. a.r.l., priority 2006, dated 2007)
